Experimental findings from patent US8030442B2, “Treatment of injury to the brain by inhibition of acid sensing ion channels” (priority 2004, dated 2011) are described below.

Entries after “also recorded” stand apart in the source; their conditions may differ.

The target of data set [1] is T1, ASICs in cortical neurons (Mus musculus, UniProt Q6NXK8).
T1 construct: indicating significant Ca^2+ permeability of ASICs in the majority of cortical neurons; endogenous in cells; host or cells: primary cultured mouse cortical neurons
T1 sequence (Q6NXK8 1-526): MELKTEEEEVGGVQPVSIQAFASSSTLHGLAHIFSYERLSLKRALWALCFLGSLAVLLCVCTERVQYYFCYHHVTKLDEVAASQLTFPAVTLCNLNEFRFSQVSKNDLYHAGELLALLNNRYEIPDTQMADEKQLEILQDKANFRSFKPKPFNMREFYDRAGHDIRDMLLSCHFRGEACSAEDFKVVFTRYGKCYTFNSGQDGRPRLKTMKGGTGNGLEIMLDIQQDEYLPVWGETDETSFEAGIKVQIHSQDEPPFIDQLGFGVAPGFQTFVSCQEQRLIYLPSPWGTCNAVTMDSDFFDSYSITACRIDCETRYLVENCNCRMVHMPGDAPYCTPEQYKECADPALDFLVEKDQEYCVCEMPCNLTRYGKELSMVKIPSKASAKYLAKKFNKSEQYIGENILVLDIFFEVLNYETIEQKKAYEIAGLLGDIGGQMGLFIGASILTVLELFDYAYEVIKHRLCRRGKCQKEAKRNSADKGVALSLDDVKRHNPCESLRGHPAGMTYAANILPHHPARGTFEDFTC
Nature of the data set: Ca2+-mediated acid-activated current in cortical neurons (10 mM Ca2+ as only charge carrier). It counts as cell-based. The following applies: pH 6.0, -60 mV, n=6, read-out: peak amplitude of Ca2+-mediated current, % of control.

The subject of data set [2] is cortical neurons. The format is cell-based, mouse. The following applies: with MK801, CNQX, nimodipine, ω-conotoxin MVIIC; n=6-8.
The test system of data set [3] is cortical neurons cultured from ASIC+/+ and ASIC1-/- mice. The data set can be described thus: LDH release in neurons cultured from ASIC+/+ and ASIC1-/- mice. The format is cell-based, mouse. The protocol:
Following anesthesia with halothane, cerebral cortices were dissected from PI ASIC1^+/+ and ASIC1^−/− mice and incubated with 0.05% trypsin-EDTA for 10 min at 37° C. Tissues were then triturated with fire-polished glass pipettes and plated on poly-L-ornithine-coated 24-well plates or 25×25 mm glass coverslips at a density of 2.5×10^5 cells per well or 10^6 cells per coverslip. Neurons were cultured with MEM supplemented with 10% horse serum (for E16 cultures) or Neurobasal medium supplemented with B27 (for P1 cultures) and used for electrophysiology and toxicity studies after 12 days. Glial growth was suppressed by addition of 5-fluoro-2-deoxyuridine and uridine, yielding cultured cells with ˜90% neurons as determined by NeuN and GFAP staining (data not shown).
Cells were treated with either pH 7.4 or 6.0 ECF for 1 hr. LDH release was measured 24 hr after acid incubation. […] Background absorbance at 620 was subtracted.
In general terms: LDH leaks from cells whose membrane has failed.

The subject of data set [4] is COS-7 cells stably transfected with ASIC1a. The data set can be described thus: Acid-induced LDH release in ASIC1a-transfected COS-7 cells. The following applies: 100 μM, 1 hr pH 6.0, 24 hr. It counts as cell-based. The protocol: COS-7 cells, a cell line commonly used for expression of ASICs due to its lack of endogenous channels (Chen et al. 1998; Immke and McCleskey 2001 and Escoubas et al. 2000), were cultured in MEM with 10% HS and 1% PenStrep (GIBCO). At ˜50% confluence, cells were cotransfected with cDNAs for ASICs and GFP in pcDNA3 vector using FuGENE6 transfection reagents (Roche Molecular Biochemicals). DNA for ASICs (0.75 μg) and 0.25 μg of DNA for GFP were used for each 35 mm dish. GFP-positive cells were selected for patch-clamp recording 48 hr after transfection. For stable transfection of ASIC1a, 500 μg/mL G418 was added to culture medium 1 week following the transfection. The surviving G418-resistant cells were further plated and passed for >5 passages in the presence of G418. Cells were then checked with patch-clamp and immunofluorescent staining for the expression of ASIC1a.
To provide additional evidence that activation of ASIC1a is involved in acid injury, acid injury of nontransfected and ASIC1a transfected COS-7 cells as described above was studied. Following confluence (36-48 hr after plating), cells were treated with either pH 7.4 or 6.0 ECF for 1 hr.
LDH release was measured 24 hr after acid incubation. […] Background absorbance at 620 was subtracted.

The target in another data set is TRPM7 channels (Homo sapiens, UniProt Q96QT4). Nature of the data set: TRPM7 conductance, current-voltage relationship. It counts as cell-based. The following applies: 100 μM or 500 μM, ~10 min. Here is the method: In FIG. 36, after a stable current-voltage relationship (I-V curve) was recorded, amiloride at either 100 μM or 500 μM was perfused to the cell for ˜10 min. The I-V curve in the presence of amilolide was then generated (FIG. 36 A). Similarly in FIG. 36B, after a stable I-V curve was recorded, PcTX venom at 300 ng/ml was perfused to the cell for ˜10 min. The I-V curve in the presence of PcTX venom was then generated.
TRPM7 channels, sequence (Q96QT4 whole entry, the tested form may be a part): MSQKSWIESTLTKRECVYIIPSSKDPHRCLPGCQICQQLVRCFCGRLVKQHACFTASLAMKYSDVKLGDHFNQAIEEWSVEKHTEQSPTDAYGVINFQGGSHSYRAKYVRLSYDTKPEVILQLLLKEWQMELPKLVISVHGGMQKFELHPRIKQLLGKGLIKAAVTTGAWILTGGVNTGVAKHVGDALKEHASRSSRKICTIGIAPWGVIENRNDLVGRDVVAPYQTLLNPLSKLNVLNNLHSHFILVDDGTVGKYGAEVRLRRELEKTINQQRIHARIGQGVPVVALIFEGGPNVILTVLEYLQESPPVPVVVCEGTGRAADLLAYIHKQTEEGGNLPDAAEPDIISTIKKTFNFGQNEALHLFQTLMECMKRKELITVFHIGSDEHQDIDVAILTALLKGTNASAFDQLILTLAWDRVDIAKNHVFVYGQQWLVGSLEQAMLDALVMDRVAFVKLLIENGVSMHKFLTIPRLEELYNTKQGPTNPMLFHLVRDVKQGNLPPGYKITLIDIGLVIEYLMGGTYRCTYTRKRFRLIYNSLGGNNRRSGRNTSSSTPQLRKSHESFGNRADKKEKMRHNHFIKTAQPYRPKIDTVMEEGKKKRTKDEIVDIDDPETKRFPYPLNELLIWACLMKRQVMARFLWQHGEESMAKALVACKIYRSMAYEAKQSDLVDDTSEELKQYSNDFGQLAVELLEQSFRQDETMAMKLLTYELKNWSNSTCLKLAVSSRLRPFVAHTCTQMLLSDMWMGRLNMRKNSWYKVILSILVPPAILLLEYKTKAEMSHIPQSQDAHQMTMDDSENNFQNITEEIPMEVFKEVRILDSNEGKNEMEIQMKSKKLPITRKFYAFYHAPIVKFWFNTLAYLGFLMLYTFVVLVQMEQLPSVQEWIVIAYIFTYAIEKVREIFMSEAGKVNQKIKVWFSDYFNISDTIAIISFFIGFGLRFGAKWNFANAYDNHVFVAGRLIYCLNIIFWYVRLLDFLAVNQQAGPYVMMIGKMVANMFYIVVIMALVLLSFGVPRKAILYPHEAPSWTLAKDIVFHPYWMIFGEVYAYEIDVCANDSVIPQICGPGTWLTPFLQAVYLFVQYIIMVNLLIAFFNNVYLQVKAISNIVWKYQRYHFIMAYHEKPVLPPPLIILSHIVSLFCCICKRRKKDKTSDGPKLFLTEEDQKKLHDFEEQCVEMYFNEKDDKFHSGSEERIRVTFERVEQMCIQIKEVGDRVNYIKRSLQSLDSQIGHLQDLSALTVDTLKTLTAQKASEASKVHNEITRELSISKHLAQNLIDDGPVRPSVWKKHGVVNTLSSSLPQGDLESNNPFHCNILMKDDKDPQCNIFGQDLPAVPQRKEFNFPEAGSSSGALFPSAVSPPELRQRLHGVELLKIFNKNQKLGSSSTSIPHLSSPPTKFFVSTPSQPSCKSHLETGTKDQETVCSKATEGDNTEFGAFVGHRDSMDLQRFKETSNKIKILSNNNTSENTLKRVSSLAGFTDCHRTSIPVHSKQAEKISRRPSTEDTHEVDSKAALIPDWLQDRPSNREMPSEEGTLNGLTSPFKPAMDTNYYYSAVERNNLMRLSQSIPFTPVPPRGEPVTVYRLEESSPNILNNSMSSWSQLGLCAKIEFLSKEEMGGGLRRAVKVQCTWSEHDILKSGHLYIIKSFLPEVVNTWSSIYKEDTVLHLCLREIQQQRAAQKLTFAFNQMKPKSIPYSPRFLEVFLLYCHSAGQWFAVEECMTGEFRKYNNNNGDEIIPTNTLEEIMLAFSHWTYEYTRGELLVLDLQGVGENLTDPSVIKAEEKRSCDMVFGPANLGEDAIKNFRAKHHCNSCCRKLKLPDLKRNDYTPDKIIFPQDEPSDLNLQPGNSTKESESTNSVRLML

In data set [5] the test system is rat model of transient focal ischemia. It counts as in vivo. The following applies: n=11.
The subject of another data set is hippocampal slice. The data set can be described thus: Seizure-like activity in hippocampal slices in magnesium-free aCSF. The settings on record: 100 μM for thirty minutes. Here is the method: Hippocampal slices were bathed in magnesium-free artificial cerebrospinal fluid (aCSF). The absence of magnesium in the fluid makes neurons in the slice susceptible to seizure-like electrical activity. Accordingly, the hippocampal slice maintained in magnesium-free fluid provides a model system for epilepsy. Electrical potential was measured prior to addition of any compounds, after treatment with PcTX venom followed by electrical stimulation, after PcTX venom was removed, with amiloride, during transient removal of kyneuric acid, and kainic acid to promote seizure activity in the mice with or without injection of PcTX venom.
The three graphs in panel 23A show the electrical potential measured from the same hippocampal slice after electrical stimulation near the beginning of each voltage trace, to promote depolarization followed by re-polarization (a peak(s) in the voltage trace). Electrical stimulation of a control hippocampal slice, bathed in fluid with a physiological magnesium level, produced a single peak in the voltage trace (not shown here). In contrast, as shown here in the first graph of panel 23A, electrical stimulation of a hippocampal slice maintained in aCSF without magnesium produced a series of individual peaks, indicative of seizure-like activity.

For data set [6], the system named is cultured hippocampal neurons. The data set can be described thus: Seizure-like electrical activity of cultured hippocampal neurons on kyneuric acid removal. The following applies: during kyneuric acid removal. The format is cell-based. Here is the method: The neurons were grown in the presence of kyneuric acid. Removal of the kyneuric acid promoted spontaneous, sustained electrical activity by the neurons.
The magnitude and periodicity of the peaks in the voltage traces changed upon exposure to amiloride.

Data set [7] relates to cortical neurons. Nature of the data set: Acid-induced LDH release in cortical neurons.

As to `N=C(N)NC(=O)c1nc(Cl)c(N)nc1N` [amiloride], the remaining activity at 100 µM in data set [1] was 26%. In addition, in the data set on cortical neurons [2], the “peak and sustained acid-induced increases in [Ca2+]i” value is “largely inhibited”. In addition, the “acid-induced LDH release in ASIC+/+ neurons” value in data set [3] (1 hr pH 6.0, n=8-12) is recorded as “reduced”. Besides, the “effect on acid-induced LDH release in ASIC1-/- neurons” value in [3] (knockout of the ASIC1 gene, n=8) is listed as “eliminated the effect”. Also, the “acid-induced LDH release” value in [4] is listed as “inhibited acid-induced LDH release”. On TRPM7 channels, the “conductance of TRPM7 channels” value is reported as “had no effect; also recorded: lack of blockade”. The infarct volume in [5] is reported as 229.7±41.1 mm^3. Moreover, the “peaks in voltage trace after electrical stimulation” value in the data set with hippocampal slice is “reduced both the number and amplitude of peaks”. Also, the “seizure-like electrical activity of neurons” value in [6] is reported as “blocked the seizure-like electrical activity”. Moreover, the “LDH release at 24 hr, % of maximal” value in the data set with cortical neurons [7] (100 μM, 10 min before and during 1 hr pH 6.0, without blocker 45.3%±3.8%) is listed as 31.1%±2.5%. The “LDH release on prolonged incubation” value in the data set with cortical neurons [7] (alone, e.g. 5 hr, n=8) is given as “increased LDH release”. Moreover, the “baseline LDH release” value in the data set with cortical neurons [7] (pH 7.4 ECF for 1 hr) was “did not affect baseline LDH release”.
